Test results reported in patent publication US5091547A, “Phenylacetic acid derivative and process for making same” (priority 1989, dated 1992).
Where a name gives a salt, the structure may show the parent alone.

How the values were obtained:
[1] = acid as such; cited from earlier work
[2] = tested on: ulcers induced by absolute ethanol; experiment: Protective activity, ulcers induced by absolute ethanol; format: in vivo, rats
Description: As explained previously, the compound of formula (I), which shall henceforth be referred to herein as LV-216, combines the advantage of anti-inflammatory and protective action.

[3] = tested on: ulcerous lesions in the stomach and intestine; experiment: Comparative ulcerogenic action, macroscopic lesion indices (Adami's criterion); format: in vivo, Female Wistar rats
Protocol: Group I: control (excipient) (n=8)
Group II: sodium salt 10 mg/kg (n=8)
Group IV: sodium salt 10 mg/kg+zinc sulphate 2.5 mg/kg (n=8) (equivalent doses).
The products were administered orally every day for four consecutive days. The animals were given no food during the 24 hours prior to the last dose.

O=C(O)Cc1ccccc1Nc1c(Cl)cccc1Cl [2-(2,6-dichloroaniline)-phenylacetic acid]
Water solubility (in words, background) [1]: practically insoluble in water
inhibition of ulcers induced by absolute ethanol (in words) ([2]; equimolecular dose): does not inhibit the ulcers induced by absolute ethanol

zinc compound of 2-(2,6-dichloroaniline)-phenylacetic acid [LV-216]
gastric tolerance (in words) ([3]; compared with sodium salt alone or in combination with zinc): surprisingly high degree of gastric tolerance, greater than that shown by the sodium salt administered alone or in combination with Zinc
t test of mm lesion versus control ([2]; 11 mg/kg, versus control): a (p < 0.01 versus control)
inhibition of ulcers induced by ethanol (protective action) ([2]; rats, doses of between 5 and 15 mg/kg): ≤ 80%

O=C(O)Cc1ccccc1Nc1c(Cl)cccc1Cl [sodium salt, sodium salt of 2-(2,6-dichloroaniline)-phenylacetic acid]
Macroscopic lesion index (x ± e) ([3]; oral, daily for four consecutive days, SS 10 mg/kg, LV-216 11 mg/kg, SS 10 mg/kg + zinc sulphate 2.5 mg/kg, n=8, control 0.4 ± 0.2): 4.0 ± 0.4
t vs CONTROL (lesion index) ([3]; versus control): *** (p < 0.001)
ulcerous index versus control (in words) ([3]; versus control): statistically significant versus the control groups
mm lesion (lesion index) ([2]; LV-216 11 mg/kg, sodium salt at equimolecular dose, control 86.3 ± 9.4): 70.8 ± 8.2 mm
% inhibition of ulcers ([2]; versus control, LV-216 11 mg/kg, sodium salt at equimolecular dose): 17.9%
